Experimental data as given in PubChem BioAssay (NCI).
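Interpolation was linear, between the two tested concentrations surrounding the appropriate level; five concentrations were tested over 48 hours in 96-well plates. The concentration for full growth arrest is given as TGI.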 Where a SMILES comes first, the peptide text is derived from it. The star is where a group is joined. Boc = CC(C)(C)OC(=O)*

Key:
Assay in all cases: NCI-60 cell line screen, 48 h
[1] = test system: SK-MEL-5 melanoma
[2] = test system: M14 melanoma
[3] = test system: SK-MEL-2 melanoma
[4] = test system: A498 renal
[5] = test system: U251 CNS
[6] = test system: SF-268 CNS
[7] = test system: MOLT-4 leukemia
[8] = test system: NCI-H226 lung
[9] = test system: HCT-15 colon
[10] = test system: CAKI-1 renal
[11] = test system: RXF 393 renal

| SMILES | TGI [1] | TGI [2] | TGI [3] | TGI [4] | TGI [5] | TGI [6] | TGI [7] | TGI [8] | TGI [9] | TGI [10] | TGI [11] |
| --- | --- | --- | --- | --- | --- | --- | --- | --- | --- | --- | --- |
| COC(=O)C(Cc1c[nH]c2ccccc12)NC(=O)C(Cc1c[nH]c2ccccc12)NC(=O)C(Cc1c[nH]c2ccccc12)NC(=O)C(Cc1c[nH]c2ccccc12)NC(=O)C(Cc1c[nH]c2ccccc12)NC(=O)C(Cc1c[nH]c2ccccc12)NC(=O)C(Cc1c[nH]c2ccccc12)NC(=O)C(Cc1c[nH]c2ccccc12)NC(=O)OC(C)(C)C (configuration not stated) (Boc-WWWWWWWW-OMe; configuration not given here) | 73.3 µM | 25.1 µM | > 100 µM | 55.6 µM | > 100 µM | > 100 µM | > 100 µM | > 100 µM | > 100 µM | > 100 µM |  |
| Nn1c(Cc2ccc([N+](=O)[O-])cc2)n[nH]c1=O | > 100 µM | > 100 µM | > 100 µM |  | > 100 µM | > 100 µM | > 100 µM | > 100 µM | > 100 µM | > 100 µM |  |
| Nc1nc2c3nc(Nc4ccccc4)sc3nc(=O)n2c2sc(Nc3ccccc3)nc12 | > 100 µM | > 100 µM |  | > 100 µM | > 100 µM | > 100 µM | > 100 µM | > 100 µM | > 100 µM |  | > 100 µM |
| COc1ccc(SCc2cc(OCc3ccccc3)c(OCc3ccccc3)c(OCc3ccccc3)c2)cc1 |  | 3.57 µM |  | 3.49 µM | 3.22 µM | 3.42 µM | 3.3 µM | 3.73 µM | 3.47 µM | 3.02 µM |  |
| C=C1CCC([N+](=O)[O-])[C@](C)(N=O)CC[C@@H]2C1CC2(C)C (some centres not stated) | 28.6 µM | > 100 µM |  |  | 48.2 µM | > 100 µM | > 100 µM | 30.9 µM | 65.4 µM | > 100 µM |  |
| COc1ccccc1C(=O)c1c(NCc2ccccc2)c(=O)c1=O | > 100 µM | > 100 µM | > 100 µM | > 100 µM | > 100 µM | > 100 µM | 83.3 µM | > 100 µM | > 100 µM | > 100 µM |  |
| CC(=O)O[C@H]1[C@H](OC(=O)CC(C)(O)CC(=O)O)C[C@]2(C)C3=C(CCC2C1(C)C)[C@]1(C)CC[C@H]([C@H]2CC[C@H](C(C)(C)O)OC2O)[C@@]1(C)[C@@H](O)C3 (some centres not stated) | 30.9 µM | 33.4 µM | 37.1 µM | 26.4 µM | 35.5 µM |  | 40.9 µM | 53.8 µM | 34.9 µM | 36.7 µM |  |
| COc1ccc2c(c1)CCc1c-2n(CCN2CCCCC2)c2ccc(OC)cc12 | > 100 µM | > 100 µM | > 100 µM | > 100 µM | > 100 µM | > 100 µM |  | 56.7 µM | > 100 µM | > 100 µM |  |
